Source: ChEMBL document CHEMBL1145875, “Xylylated dimers of putrescine and polyamines: influence of the polyamine backbone on spermidine transport inhibition” (Bioorg Med Chem Lett, 2003)

Tested on: T47D
Experiment: (§1) Inhibition of spermidine transport determined in T-47D human breast cancer cells
Format: functional, cell-based

Row | Compound | Km [µM]
1 | NCCCCNCCCN | 4.4

Target: T47D
Experiment: as §1
Format: functional, cell-based

Row | Compound | Ki [µM]
2 | NCCC(CN)NCc1ccc(CNC(CN)CCN)cc1 (stereo not drawn) | 9.3
3 | NCCC(CN)OCc1ccc(COC(CN)CCN)cc1 (stereo not drawn) | 12.8
4 | NCCCCCN(CCCCCN)Cc1ccc(CN(CCCCCN)CCCCCN)cc1 | 2.8
5 | NCCCNCCCN [NORSPERMIDINE] | 9.5
6 | NCCCCCNCCCCCN | 3.4
7 | NCCCNCCCCN(CCCN)Cc1ccc(CN(CCCN)CCCCNCCCN)cc1 | 1.1
8 | NCCCCNCCCCN | 2.7
9 | NCCCCCCNCCCCCCN | 20.9
10 | NCCCNCCCCNCCCN [SPERMINE] | 2.1
11 | NCCCCN [PUTRESCINE] | > 500
12 | NCCCCCCN(CCCCCCN)Cc1ccc(CN(CCCCCCN)CCCCCCN)cc1 | 9.4
13 | NCCCCN(CCCCN)Cc1ccc(CN(CCCCN)CCCCN)cc1 | 2.8
